In patent US20160101076A1, “Use of Sumoylation Inhibitors for Treating Cancer” (priority 2013, published 2016):

Experiments:
[1] = test system: SUMO-conjugated proteins, SUMO-conjugated form of TFAP2A in BT549 cells; assay: Western blot of SUMO-conjugated proteins in BT549 cells; format: cell-based, human; conditions: vs vehicle
Procedure: FIG. 16. Anacardic Acid Inhibits SUMO-conjugated Proteins. Western blots were performed on protein extracts of BT549 cells treated with vehicle (V) or anacardic acid (AA) and reacted with antibodies for SUMO1, TFAP2A or GAPDH, as indicated. Equal amounts of protein were loaded in each lane. […] GAPDH control indicates equal loading of protein. MW indicates molecular weight markers.
Western blots were performed as previously described (Cyr et al., 2014; Kulak et al., 2013). For immunoprecipitations anti-TFAP2A, anti-GFP antibody (Life Technologies) or IgG (#sc-2025, Santa Cruz Biotechnology) were cross-linked with Dynabeads protein A (Life Technologies). MCF7 protein was incubated with Dynabeads protein A-Abs complex, protein complexes were washed with DPBS (Gibco) with 0.01% Tween (Research Products International Corp.), and eluted with SDS loading buffer.
Cells were plated ([…]/10 cm2) and treated with 10 μM gingolic or anacardic acid (Sigma) for 2-4 days and collected for qPCR, Western blot and FACS analysis.

BT20 xenografts = assay: BT20 xenografts, animals gavaged; format: in vivo; conditions: BT20 xenografts in nude mice, animals gavaged vs vehicle; FIG. 8B
Description: (§1) FIGS. 8A-8D. SUMO Inhibitors Repressed Outgrowth of Xenografts. FIG. 8A. […] FIG. 8B. Tumor-free survival of nude mice (n=5 per group) inoculated with BT20 cells with animals gavaged with AA vs. vehicle. FIG. 8C. IOWA-1T cells were pre-treated with anacardic acid (AA) or vehicle and mice were followed until requiring euthanasia due to tumor size (Overall Survival). […] FIG. 8D. Nude mice were inoculated with 1×10^6, 5×10^5, or 2.5×10^5 IOWA-1T cells and animals were gavaged with either vehicle or AA; vehicle-gavaged mice developed tumors in 5, 10 and 12 days, respectively.
To address the effects of GA and AA on tumor initiation, BT20 cells were pretreated with GA or AA compared to vehicle prior to inoculation of xenografts in nude mice. As noted in FIG. 8A, pretreatment of the cells repressed the formation of tumor xenografts, whereas, vehicle treated cells formed xenografts with a median time of 8 weeks. […] We created a breast carcinoma cell line (IOWA-1T) from the basal tumor-derived cells used in FIG. 6A. The IOWA-1T cell line rapidly forms locally advanced tumors in nude mice. Identical experiments using the IOWA-1T basal cell line confirmed that either pre-treating the cancer cells or gavaging animals with AA repressed tumor initiation of xenografts (FIGS. 8C and 8D). […]

IOWA-1T xenografts [2] = assay: IOWA-1T xenografts from pre-treated cells; format: in vivo; conditions: IOWA-1T cells pre-treated vs vehicle, nude mice; p=0.002; FIG. 8C
Description: as §1
(§2) To address the effects of GA and AA on tumor initiation, BT20 cells were pretreated with GA or AA compared to vehicle prior to inoculation of xenografts in nude mice. As noted in FIG. 8A, pretreatment of the cells repressed the formation of tumor xenografts, whereas, vehicle treated cells formed xenografts with a median time of 8 weeks. […] We created a breast carcinoma cell line (IOWA-1T) from the basal tumor-derived cells used in FIG. 6A. The IOWA-1T cell line rapidly forms locally advanced tumors in nude mice. Identical experiments using the IOWA-1T basal cell line confirmed that either pre-treating the cancer cells or gavaging animals with AA repressed tumor initiation of xenografts (FIGS. 8C and 8D).
(§3) Statistical analysis was performed using the two-sided Student's T-test for continuous variables. […]

IOWA-1T xenografts [3] = assay: IOWA-1T xenografts, animals gavaged; format: in vivo; conditions: nude mice inoculated with 1×10^6, 5×10^5 or 2.5×10^5 IOWA-1T cells, gavaged vs vehicle; p=0.025; FIG. 8D
Description: as §1, §2, §3

[4] = test system: Colorectal cancer stem cells (CSC); assay: Stem cell markers in primary colorectal cancer stem cells (qPCR, Western blot); format: cell-based; conditions: 10 μM, 48 hours
Procedure: […]: qPCR, CD44 downregulation after treatment of colorectal CSC with anacardic acid, 48 h. […]: qPCR, ALCAM (activated leucocyte cell adhesion molecule) after treatment of colorectal CSC with anacardic acid, 48 h. FIG. 17C: qPCR, EPCAM (epithelial cell adhesion molecule) after treatment of colorectal CSC with anacardic acid, 48 h. FIG. 17D: Western blot, CD44 downregulation after treatment of colorectal CSC with anacardic acid, 48 h.
Informed consent primary colorectal tumor material was obtained during operation and was transferred to lab. Colorectal cancer stem cells (CSC) were isolated accordingly Cammareri et al, 2008 and treated with 10 μM anacardic acid within 48 hours.

CCCCCCCCCCCCCCCc1cccc(O)c1C(=O)O [AA, Anacardic acid (C15:0)]
SUMO conjugated form of TFAP2A ([1]; Western blot FIG. 16): inhibited
overall expression of TFAP2A ([1]; Western blot FIG. 16): decrease slightly
SUMO conjugation of proteins globally ([1]; Western blot SUMO1 antibody, FIG. 16): inhibited
tumor formation (tumor-free survival) (BT20 xenografts): failed to form tumors
tumor formation (overall survival) (IOWA-1T xenografts [2]): inhibited tumor formation
tumor formation (IOWA-1T xenografts [3]): failed to form tumors
CD44 by qPCR ([4]; FIG. 17A): down regulated
ALCAM by qPCR ([4]; FIG. 17B): down regulated
EPCAM by qPCR ([4]; FIG. 17C): down regulated
CD44 by Western blot ([4]; FIG. 17D): reduction
